Experimental findings from patent US11014890B2, “Forms of (R)-N-(4-chlorophenyl)-2-(cis-4-(6-fluoroquinolin-4-yl)cyclohexyl)propanamide” (SHENZHEN RENTAI PHARMATECH LTD, priority 2018, dated 2021) are described below.

Holding throughout (type): physicochemical
Data set [1] is described as follows: light stability test (XRPD comparison). The following applies: 25° C. and 4500 lux of light, 5 d and 10 d; XRPD FIGS. 11, 12 and 27. The protocol: (§1) X-Ray Powder Diffractometer (XRPD)
(§2) Model: Bruker, Germany, BRUKER D8 DISCOVER
(§3) Method: Cu target Ka, voltage 40 KV, current 40 mA, test angle 3-45°, step size 0.02, exposure time 0.2 S, light pipe slit width 1 mm, detector slit width 2.7 mm.
Model: Shanghai Yiheng Scientific Instrument Co., Ltd., MGC-100
(§4) The products prepared in Embodiment 1 and Embodiment 6, and the amorphous active pharmaceutical ingredient were respectively subjected to experimental tests for light stability, high-temperature stability, accelerated stability, high-humidity stability, and water adsorption.
(1) The test products were respectively placed under 25° C. and 4500 lux of light and tested for 5 d and 10 d stability, and the results are shown in FIGS. 11, 12 and 27.

Data set [2] in a line: high-temperature stability test (XRPD comparison). Conditions: 60° C., 5 d and 10 d; XRPD FIGS. 13, 14 and 28. Here is the method: as §1, §2, §3
Electrothermal Constant-Temperature Dry Box
(§5) Model: DHG-9011A (Shanghai Jinghong Experimental Equipment Co., Ltd.) Programmable drug stability constant temperature and humidity tester
as §4
(2) The test products were respectively placed under 60° C. and tested for 5 d and 10 d stability, and the results are shown in FIGS. 13, 14 and 28.

The nature of data set [3]: high-humidity stability test (XRPD comparison). The following applies: 25° C. and humidity of 92.5% RH; XRPD FIGS. 32, 33 and 34. The protocol:
as §1, §2, §3, §4

Data set [4] is described as follows: accelerated stability test (XRPD comparison). The following applies: 40° C. and humidity of 75% RH; XRPD FIGS. 15, 16 and 29. The protocol:
as §1, §2, §3, §5
Model: CMA-100C (Shanghai Puhan Precision Equipment Co., Ltd.)
as §4

The nature of data set [5]: water adsorption test (DVS). The following applies: 25° C., humidity 0-90, 10% per step, weight change less than 0.002% in each step of 10 minutes; FIGS. 17, 18 and 30. The protocol:
DVS Model: SMS, U.K, DVS intrinsic Method: 25° C., 10% humidity per step, the judgment standard is less than 0.002% for 10 min The products prepared in Embodiment 1 and Embodiment 6, and the amorphous active pharmaceutical ingredient were respectively subjected to experimental tests for light stability, high-temperature stability, accelerated stability, high-humidity stability, and water adsorption. (5) The test products were respectively subjected to the water adsorption test, the experimental conditions were as follows: 25° C., humidity 0-90, 10% per step, and the weight change was less than 0.002% in each step of 10 minutes.

Turning to `C[C@@H](C(=O)Nc1ccc(Cl)cc1)[C@H]1CC[C@@H](c2ccnc3ccc(F)cc32)CC1` [Form B, (R)—N-(4-chlorophenyl)-2-(cis-4-(6-fluoroquinolin-4-yl)cyclohexyl)propanamide], the light stability result in data set [1] is given as “good stability”. Further, in data set [2], the high-temperature stability entry was “good stability”. Also, the high-humidity stability result in data set [3] was “good stability”. Moreover, in data set [4], the accelerated stability result is “good stability”. Further, the “water adsorption (hygroscopic curve, DVS)” value (“water adsorption” for short) in data set [5] is reported as “do not adsorb water”.

As for `C[C@@H](C(=O)Nc1ccc(Cl)cc1)[C@H]1CC[C@@H](c2ccnc3ccc(F)cc32)CC1` [Form C, (R)—N-(4-chlorophenyl)-2-(cis-4-(6-fluoroquinolin-4-yl)cyclohexyl)propanamide], the light stability entry in data set [1] is “good stability”. For the same compound, the high-temperature stability result in data set [2] was “good stability”. For the same compound, the high-humidity stability entry in data set [3] is listed as “good stability”. The accelerated stability entry in data set [4] is on record as “good stability”. Further, in data set [5], the “water adsorption” value is “do not adsorb water”.

In the case of `C[C@@H](C(=O)Nc1ccc(Cl)cc1)[C@H]1CC[C@@H](c2ccnc3ccc(F)cc32)CC1` [amorphous active pharmaceutical ingredient] [(R)—N-(4-chlorophenyl)-2-(cis-4-(6-fluoroquinolin-4-yl)cyclohexyl)propanamide, reference compound], the light stability result in data set [1] is recorded as “good stability”. Further, the high-temperature stability result in data set [2] is “good stability”. Also, the high-humidity stability entry in data set [3] is “good stability”. The accelerated stability entry in data set [4] is recorded as “good stability”. Further, the “water adsorption” value in data set [5] is “large hygroscopicity”.
